Here are results for 8 molecules from patent US9340590B2 (priority 2011, dated 2016).

One may read the IC50 as the midpoint of a concentration-inhibition curve.

In experiment [1] the target is hNav1.7 (Homo sapiens, UniProt Q15858). The experiment can be described thus: cell-based.
For experiment [2], the target named is hNav1.5 (Homo sapiens, UniProt Q14524). The experiment can be described thus: cell-based.

The structures appear in SMILES notation. Like-named read-outs stand apart in the source and are kept apart here. Positions of bridges follow the written chain, without caps; N, C: chain ends. Non-standard residues stand in square brackets, D forms with d. Residues, ends and D or L forms follow the SMILES beside them. *: point of attachment. 1Nal = N[C@@H](Cc1cccc2ccccc12)C(=O)O; Pent4ynoyl = C#CCCC(=O)*; Abu = CC[C@H](N)C(=O)O Where only a bound is given, the exact number is not on record here.

hNav1.5, sequence (Q14524 whole entry, looked up): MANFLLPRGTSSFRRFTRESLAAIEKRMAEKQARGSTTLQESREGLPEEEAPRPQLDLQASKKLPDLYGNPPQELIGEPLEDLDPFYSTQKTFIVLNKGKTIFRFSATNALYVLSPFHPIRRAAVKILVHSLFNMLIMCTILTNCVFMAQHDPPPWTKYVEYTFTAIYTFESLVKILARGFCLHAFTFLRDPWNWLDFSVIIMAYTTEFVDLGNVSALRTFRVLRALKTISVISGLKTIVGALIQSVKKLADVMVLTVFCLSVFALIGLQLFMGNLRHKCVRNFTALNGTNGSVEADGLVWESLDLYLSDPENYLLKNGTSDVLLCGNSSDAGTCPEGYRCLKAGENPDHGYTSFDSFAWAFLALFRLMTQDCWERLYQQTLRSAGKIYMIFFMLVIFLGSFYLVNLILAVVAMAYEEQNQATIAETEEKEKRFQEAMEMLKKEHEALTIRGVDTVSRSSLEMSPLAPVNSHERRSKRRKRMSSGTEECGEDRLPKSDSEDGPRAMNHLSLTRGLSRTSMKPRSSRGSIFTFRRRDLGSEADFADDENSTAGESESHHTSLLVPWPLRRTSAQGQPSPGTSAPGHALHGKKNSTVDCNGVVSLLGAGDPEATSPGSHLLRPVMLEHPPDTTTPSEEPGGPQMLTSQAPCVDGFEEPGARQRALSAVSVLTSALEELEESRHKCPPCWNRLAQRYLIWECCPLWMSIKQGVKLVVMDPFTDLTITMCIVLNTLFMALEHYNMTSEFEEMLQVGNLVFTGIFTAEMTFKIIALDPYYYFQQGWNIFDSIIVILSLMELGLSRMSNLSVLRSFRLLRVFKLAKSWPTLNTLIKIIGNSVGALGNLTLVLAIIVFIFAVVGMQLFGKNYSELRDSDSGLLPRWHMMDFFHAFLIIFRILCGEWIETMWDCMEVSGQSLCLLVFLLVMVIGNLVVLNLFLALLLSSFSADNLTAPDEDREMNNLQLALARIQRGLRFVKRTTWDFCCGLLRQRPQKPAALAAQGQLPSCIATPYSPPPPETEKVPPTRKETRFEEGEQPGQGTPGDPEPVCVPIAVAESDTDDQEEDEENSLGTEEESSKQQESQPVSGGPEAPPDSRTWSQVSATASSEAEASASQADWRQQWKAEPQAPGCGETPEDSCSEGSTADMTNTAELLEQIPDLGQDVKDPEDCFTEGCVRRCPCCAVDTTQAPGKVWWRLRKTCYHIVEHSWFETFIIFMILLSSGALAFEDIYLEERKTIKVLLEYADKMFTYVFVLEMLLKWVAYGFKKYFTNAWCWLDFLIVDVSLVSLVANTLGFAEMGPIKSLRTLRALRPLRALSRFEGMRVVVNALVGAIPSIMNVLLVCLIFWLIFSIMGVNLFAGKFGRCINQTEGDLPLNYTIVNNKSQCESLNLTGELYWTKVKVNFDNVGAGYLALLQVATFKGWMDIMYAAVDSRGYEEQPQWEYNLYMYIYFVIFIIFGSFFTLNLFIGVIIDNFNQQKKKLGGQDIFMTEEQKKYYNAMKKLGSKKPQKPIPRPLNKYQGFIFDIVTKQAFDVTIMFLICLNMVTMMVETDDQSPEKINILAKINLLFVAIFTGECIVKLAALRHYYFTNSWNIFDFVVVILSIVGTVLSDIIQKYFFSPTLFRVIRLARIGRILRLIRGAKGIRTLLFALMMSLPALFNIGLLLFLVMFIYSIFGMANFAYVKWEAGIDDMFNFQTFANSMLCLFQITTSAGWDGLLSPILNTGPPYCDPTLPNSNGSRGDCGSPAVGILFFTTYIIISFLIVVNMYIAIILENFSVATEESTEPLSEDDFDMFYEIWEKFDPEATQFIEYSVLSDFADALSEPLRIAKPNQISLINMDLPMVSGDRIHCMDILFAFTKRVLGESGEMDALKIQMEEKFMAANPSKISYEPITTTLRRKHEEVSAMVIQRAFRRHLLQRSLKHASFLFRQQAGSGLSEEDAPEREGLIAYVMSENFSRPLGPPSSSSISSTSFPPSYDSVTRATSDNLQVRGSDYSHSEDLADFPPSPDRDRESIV
hNav1.7, sequence (Q15858 whole entry, looked up): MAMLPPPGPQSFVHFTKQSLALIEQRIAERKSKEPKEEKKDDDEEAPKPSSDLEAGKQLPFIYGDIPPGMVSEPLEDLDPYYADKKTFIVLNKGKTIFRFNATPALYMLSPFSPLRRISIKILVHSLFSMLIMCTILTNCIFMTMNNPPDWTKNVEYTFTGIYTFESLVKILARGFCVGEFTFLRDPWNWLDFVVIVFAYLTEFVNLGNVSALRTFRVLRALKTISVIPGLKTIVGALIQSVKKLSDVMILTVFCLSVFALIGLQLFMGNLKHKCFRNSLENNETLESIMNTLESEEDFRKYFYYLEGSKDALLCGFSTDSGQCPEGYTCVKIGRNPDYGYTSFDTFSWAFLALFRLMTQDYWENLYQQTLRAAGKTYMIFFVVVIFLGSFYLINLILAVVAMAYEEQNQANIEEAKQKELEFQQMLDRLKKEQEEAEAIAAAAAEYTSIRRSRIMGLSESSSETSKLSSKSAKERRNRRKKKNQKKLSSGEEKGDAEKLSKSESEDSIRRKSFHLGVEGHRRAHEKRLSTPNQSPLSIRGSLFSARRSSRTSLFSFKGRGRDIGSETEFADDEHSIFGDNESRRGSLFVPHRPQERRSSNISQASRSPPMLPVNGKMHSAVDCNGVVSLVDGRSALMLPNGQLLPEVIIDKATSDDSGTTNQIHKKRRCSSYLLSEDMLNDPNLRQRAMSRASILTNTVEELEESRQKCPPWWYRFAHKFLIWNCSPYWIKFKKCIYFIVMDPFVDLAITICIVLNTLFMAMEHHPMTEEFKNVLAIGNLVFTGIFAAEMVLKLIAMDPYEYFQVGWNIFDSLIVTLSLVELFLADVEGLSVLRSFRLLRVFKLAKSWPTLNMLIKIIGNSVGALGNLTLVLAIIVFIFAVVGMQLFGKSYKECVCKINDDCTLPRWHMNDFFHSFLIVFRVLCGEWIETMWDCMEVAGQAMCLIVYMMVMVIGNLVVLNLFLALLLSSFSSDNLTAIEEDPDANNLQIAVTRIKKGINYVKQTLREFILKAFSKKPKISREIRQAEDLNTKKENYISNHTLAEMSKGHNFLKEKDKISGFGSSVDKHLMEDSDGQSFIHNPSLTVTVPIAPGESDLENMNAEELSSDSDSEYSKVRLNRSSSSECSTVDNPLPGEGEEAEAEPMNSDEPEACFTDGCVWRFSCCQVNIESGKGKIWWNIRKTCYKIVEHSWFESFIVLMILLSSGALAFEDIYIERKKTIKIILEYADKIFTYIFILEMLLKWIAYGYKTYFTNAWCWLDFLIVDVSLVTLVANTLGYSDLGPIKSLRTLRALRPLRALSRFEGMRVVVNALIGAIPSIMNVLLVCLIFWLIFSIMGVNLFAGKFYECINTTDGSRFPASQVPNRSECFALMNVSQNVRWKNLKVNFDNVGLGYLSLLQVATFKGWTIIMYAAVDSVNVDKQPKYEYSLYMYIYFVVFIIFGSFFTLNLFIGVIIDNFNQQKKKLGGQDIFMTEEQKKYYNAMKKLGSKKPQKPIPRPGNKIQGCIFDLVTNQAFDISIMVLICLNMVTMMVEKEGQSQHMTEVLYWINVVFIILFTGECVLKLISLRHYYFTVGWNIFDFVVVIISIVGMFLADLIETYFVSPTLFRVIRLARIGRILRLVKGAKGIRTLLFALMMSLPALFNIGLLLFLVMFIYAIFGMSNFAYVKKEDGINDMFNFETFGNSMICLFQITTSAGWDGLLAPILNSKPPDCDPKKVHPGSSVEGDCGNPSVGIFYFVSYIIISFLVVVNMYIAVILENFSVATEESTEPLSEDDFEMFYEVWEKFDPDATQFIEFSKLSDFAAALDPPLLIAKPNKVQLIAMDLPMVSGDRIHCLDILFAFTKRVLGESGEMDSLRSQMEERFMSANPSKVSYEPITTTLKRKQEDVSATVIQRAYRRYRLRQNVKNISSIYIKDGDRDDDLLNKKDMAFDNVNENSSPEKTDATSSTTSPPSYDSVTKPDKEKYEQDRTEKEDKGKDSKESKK

Regarding `C#CCCC(=O)NCCCC[C@@H]1NC(=O)[C@H](CC(=O)O)NC(=O)[C@@H]2CCCN2C(=O)[C@H]([C@@H](C)CC)NC(=O)[C@@H]2CSSC[C@@H]3NC(=O)[C@H](C(C)C)NC(=O)[C@H](CC(C)C)NC(=O)[C@H](CC(N)=O)NC(=O)[C@@H]4CCCN4C(=O)[C@H](CCCNC(=N)N)NC(=O)[C@H](CSSC[C@H](NC(=O)[C@@H](N)CC(=O)O)C(=O)N[C@@H](CC(C)C)C(=O)NCC(=O)N[C@@H](CC)C(=O)N[C@@H](CC(C)C)C(=O)N[C@@H](CCCNC(=N)N)C(=O)N[C@@H](CCCCN)C(=O)N2)NC(=O)[C@H](CSSC[C@@H](C(=O)N[C@@H](CCCCN)C(=O)N[C@@H](Cc2ccc(O)cc2)C(=O)N[C@H](C(=O)N[C@@H](Cc2ccccc2)C(N)=O)C(C)C)NC(=O)[C@H](Cc2c[nH]c4ccccc24)NC(=O)[C@H](CCCNC(=N)N)NC(=O)[C@H](Cc2c[nH]cn2)NC(=O)[C@H]([C@@H](C)O)NC(=O)[C@H](CCCNC(=N)N)NC(=O)[C@H](CO)NC3=O)NC(=O)[C@H](CCCCN)NC(=O)[C@H](CC(=O)O)NC1=O` (H-DCLG[Abu]LRKCIPDK(Pent4ynoyl)DKCCRPNLVCSRTHRWCKYVF-NH2; disulfide 2-17, 9-23, 16-30), the IC50 in experiment [1] (Nav1.7 Use IC50) is 2 nM; in experiment [2] it was above 10000 nM.
Turning to `CC[C@H](C)[C@@H]1NC(=O)[C@@H]2CSSC[C@@H]3NC(=O)[C@H](C(C)C)NC(=O)[C@H](CC(C)C)NC(=O)[C@H](CC(N)=O)NC(=O)[C@@H]4CCCN4C(=O)[C@H](CCCNC(=N)N)NC(=O)[C@H](CSSC[C@H](NC(=O)[C@H](CC(=O)O)NC(=O)[C@H](CO)NC(=O)CN)C(=O)N[C@@H](CC(C)C)C(=O)NCC(=O)N[C@@H](C)C(=O)N[C@@H](Cc4ccccc4)C(=O)N[C@@H](CCCNC(=N)N)C(=O)N[C@@H](CCCCN)C(=O)N2)NC(=O)[C@H](CSSC[C@@H](C(=O)N[C@@H](CCCCN)C(=O)N[C@@H](Cc2ccc(O)cc2)C(=O)N[C@H](C(=O)N[C@@H](Cc2ccccc2)C(=O)N[C@@H](Cc2ccccc2)C(=O)O)C(C)C)NC(=O)[C@H](Cc2c[nH]c4ccccc24)NC(=O)[C@H](CCCNC(=N)N)NC(=O)[C@H](Cc2c[nH]cn2)NC(=O)[C@H]([C@@H](C)O)NC(=O)[C@H](CCCNC(=N)N)NC(=O)[C@H](CO)NC3=O)NC(=O)[C@H](CCCCN)NC(=O)[C@H](CC(=O)O)NC(=O)[C@H](CC(N)=O)NC(=O)[C@H](CC(=O)O)NC(=O)[C@@H]2CCCN2C1=O` (H-GSDCLGAFRKCIPDNDKCCRPNLVCSRTHRWCKYVFF-OH; disulfide 4-19, 11-25, 18-32), the IC50 was 47 nM in experiment [1] (Nav1.7 Use IC50) and above 10000 nM in experiment [2].
Turning to `C#CCCC(=O)N[C@@H](CC(=O)O)C(=O)N[C@H]1CSSC[C@@H]2NC(=O)[C@@H]3CSSC[C@@H](C(=O)N[C@@H](CCCCN)C(=O)N[C@@H](Cc4ccc(O)cc4)C(=O)N[C@H](C(=O)N[C@@H](Cc4ccccc4)C(N)=O)C(C)C)NC(=O)[C@H](Cc4c[nH]c5ccccc45)NC(=O)[C@H](CCCNC(=N)N)NC(=O)[C@H](Cc4c[nH]cn4)NC(=O)[C@H]([C@@H](C)O)NC(=O)[C@H](CCCNC(=N)N)NC(=O)[C@H](CO)NC(=O)[C@H](CSSC[C@H](NC(=O)[C@H](CCCCN)NC(=O)[C@H](CCCNC(=N)N)NC(=O)[C@H](Cc4ccccc4)NC(=O)[C@H](C)NC(=O)CNC(=O)[C@H](CC(C)C)NC1=O)C(=O)N[C@@H]([C@@H](C)CC)C(=O)N1CCC[C@H]1C(=O)N[C@@H](CC(=O)O)C(=O)N[C@@H](CC)C(=O)N[C@@H](CC(=O)O)C(=O)N[C@@H](CCCCN)C(=O)N3)NC(=O)[C@H](C(C)C)NC(=O)[C@H](CC(C)C)NC(=O)[C@H](CC(N)=O)NC(=O)[C@@H]1CCCN1C(=O)[C@H](CCCNC(=N)N)NC2=O` (Pent4ynoyl-DCLGAFRKCIPD[Abu]DKCCRPNLVCSRTHRWCKYVF-NH2; disulfide 2-17, 9-23, 16-30), the values for the IC50 in experiment [1] (Nav1.7 Use IC50) and in experiment [2] were 4 nM and above 10000 nM, respectively.
For `C#CCCC(=O)N[C@@H](CC(=O)O)C(=O)N[C@H]1CSSC[C@@H]2NC(=O)[C@@H]3CSSC[C@@H](C(=O)N[C@@H](CCCCN)C(=O)N[C@@H](Cc4ccc(O)cc4)C(=O)N[C@H](C(=O)N[C@@H](Cc4ccccc4)C(N)=O)C(C)C)NC(=O)[C@H](Cc4c[nH]c5ccccc45)NC(=O)[C@H](CCCNC(=N)N)NC(=O)[C@H](Cc4c[nH]cn4)NC(=O)[C@H]([C@@H](C)O)NC(=O)[C@H](CCCNC(=N)N)NC(=O)[C@H](CO)NC(=O)[C@H](CSSC[C@H](NC(=O)[C@H](CCCCN)NC(=O)[C@H](CCCNC(=N)N)NC(=O)[C@H](CC(C)C)NC(=O)[C@H](CC)NC(=O)CNC(=O)[C@H](CC(C)C)NC1=O)C(=O)N[C@@H]([C@@H](C)CC)C(=O)N1CCC[C@H]1C(=O)N[C@@H](CC(=O)O)C(=O)N[C@@H](CC)C(=O)N[C@@H](CC(=O)O)C(=O)N[C@@H](CCCCN)C(=O)N3)NC(=O)[C@H](C(C)C)NC(=O)[C@H](CC(C)C)NC(=O)[C@H](CC(N)=O)NC(=O)[C@@H]1CCCN1C(=O)[C@H](CCCNC(=N)N)NC2=O` [4-Pen-[2-Abu5,13;Leu6;Arg28]GpTx-1(1-34)] (Pent4ynoyl-DCLG[Abu]LRKCIPD[Abu]DKCCRPNLVCSRTHRWCKYVF-NH2; disulfide 2-17, 9-23, 16-30) the same measures were 3 nM and above 10000 nM.
With `CC[C@H](C)[C@@H]1NC(=O)[C@@H]2CSSC[C@@H]3NC(=O)[C@H](C(C)C)NC(=O)[C@H](CC(C)C)NC(=O)[C@H](CC(N)=O)NC(=O)[C@@H]4CCCN4C(=O)[C@H](CCCNC(=N)N)NC(=O)[C@H](CSSC[C@H](NC(=O)[C@@H](N)CC(=O)O)C(=O)N[C@@H](CC(C)C)C(=O)NCC(=O)N[C@@H](C)C(=O)N[C@@H](Cc4ccccc4)C(=O)N[C@@H](CCCNC(=N)N)C(=O)N[C@@H](CCCCN)C(=O)N2)NC(=O)[C@H](CSSC[C@@H](C(=O)N[C@@H](CCCCN)C(=O)N[C@@H](Cc2ccc(O)cc2)C(=O)N[C@H](C(=O)N[C@@H](Cc2ccccc2)C(=O)N[C@@H](Cc2ccccc2)C(=O)O)C(C)C)NC(=O)[C@H](Cc2c[nH]c4ccccc24)NC(=O)[C@H](CCCNC(=N)N)NC(=O)[C@H](Cc2c[nH]cn2)NC(=O)[C@H]([C@@H](C)O)NC(=O)[C@H](CCCNC(=N)N)NC(=O)[C@H](CO)NC3=O)NC(=O)[C@H](CCCCN)NC(=O)[C@H](CC(=O)O)NC(=O)[C@H](CC(N)=O)NC(=O)[C@H](CC(=O)O)NC(=O)[C@@H]2CCCN2C1=O` [Ala5;Phe6;Arg28]GpTx-1(1-34)-Phe-] (H-DCLGAFRKCIPDNDKCCRPNLVCSRTHRWCKYVFF-OH; disulfide 2-17, 9-23, 16-30), the figures for the IC50 in experiment [1] (Nav1.7 Use IC50) and in experiment [2] were 116 nM and above 10000 nM, respectively.
Turning to `CC[C@H](C)[C@@H]1NC(=O)[C@@H]2CSSC[C@@H]3NC(=O)[C@H](C(C)C)NC(=O)[C@H](CC(C)C)NC(=O)[C@H](CC(N)=O)NC(=O)[C@@H]4CCCN4C(=O)[C@H](CCCNC(=N)N)NC(=O)[C@H](CSSC[C@H](NC(=O)[C@@H](N)CC(=O)O)C(=O)N[C@@H](CC(C)C)C(=O)NCC(=O)N[C@@H](Cc4ccccc4)C(=O)N[C@@H](CCSC)C(=O)N[C@@H](CCCNC(=N)N)C(=O)N[C@@H](CCCCN)C(=O)N2)NC(=O)[C@H](CSSC[C@@H](C(=O)N[C@@H](CCCCN)C(=O)N[C@@H](Cc2ccc(O)cc2)C(=O)N[C@H](C(=O)N[C@@H](Cc2ccccc2)C(=O)N[C@@H](Cc2ccccn2)C(N)=O)C(C)C)NC(=O)[C@H](Cc2c[nH]c4ccccc24)NC(=O)[C@H](CCCCN)NC(=O)[C@H](Cc2c[nH]cn2)NC(=O)[C@H]([C@@H](C)O)NC(=O)[C@H](CCCNC(=N)N)NC(=O)[C@H](CO)NC3=O)NC(=O)[C@H](CCCCN)NC(=O)[C@H](CC(=O)O)NC(=O)[C@H](CC(N)=O)NC(=O)[C@H](CC(=O)O)NC(=O)[C@@H]2CCCN2C1=O` [GpTx-1(1-34)-2PAL], the results for the IC50 in experiment [1] (Nav1.7 Use IC50) and in experiment [2] were 27 nM and above 10000 nM, respectively.
As to `CC[C@H](C)[C@@H]1NC(=O)[C@@H]2CSSC[C@@H]3NC(=O)[C@H](C(C)C)NC(=O)[C@H](CC(C)C)NC(=O)[C@H](CC(N)=O)NC(=O)[C@@H]4CCCN4C(=O)[C@H](CCCNC(=N)N)NC(=O)[C@H](CSSC[C@H](NC(=O)[C@@H](N)CC(=O)O)C(=O)N[C@@H](CC(C)C)C(=O)NCC(=O)N[C@@H](Cc4ccccc4)C(=O)N[C@@H](CCSC)C(=O)N[C@@H](CCCNC(=N)N)C(=O)N[C@@H](CCCCN)C(=O)N2)NC(=O)[C@H](CSSC[C@@H](C(=O)N[C@@H](CCCCN)C(=O)N[C@@H](Cc2ccc(O)cc2)C(=O)N[C@H](C(=O)N[C@@H](Cc2ccccc2)C(N)=O)C(C)C)NC(=O)[C@H](Cc2c[nH]c4ccccc24)NC(=O)[C@H](CCCCN)NC(=O)[C@H](Cc2c[nH]cn2)NC(=O)[C@H]([C@@H](C)O)NC(=O)[C@H](CCCNC(=N)N)NC(=O)[C@H](CO)NC3=O)NC(=O)[C@H](CCCCN)NC(=O)[C@H](CC(=O)O)NC(=O)[C@H](Cc2cccc3ccccc23)NC(=O)[C@H](CC(=O)O)NC(=O)[C@@H]2CCCN2C1=O` [[1-Nal13]GpTx-1(1-34)] (H-DCLGFMRKCIPD[1Nal]DKCCRPNLVCSRTHKWCKYVF-NH2; disulfide 2-17, 9-23, 16-30), the IC50 in experiment [1] (read-out: Nav1.7 Use IC50) came out at 2 nM; in experiment [2] it was 7330 nM.
`CC[C@@H]1NC(=O)[C@@H]2CSSC[C@@H](C(=O)N[C@@H](CCCCN)C(=O)N[C@@H](Cc3ccc(O)cc3)C(=O)N[C@H](C(=O)N[C@@H](Cc3ccccc3)C(N)=O)C(C)C)NC(=O)[C@H](Cc3c[nH]c4ccccc34)NC(=O)[C@H](CCCCN)NC(=O)[C@H](Cc3c[nH]cn3)NC(=O)[C@H]([C@@H](C)O)NC(=O)[C@H](CCCNC(=N)N)NC(=O)[C@H](CO)NC(=O)[C@H](CSSC[C@H](NC(=O)[C@H](CCCCN)NC(=O)[C@H](CCCNC(=N)N)NC(=O)[C@H](CCSC)NC(=O)[C@H](Cc3ccccc3)NC(=O)CNC(=O)[C@H](CC(C)C)NC(=O)[C@H](CC)NC(=O)[C@@H](N)CC(=O)O)C(=O)N[C@@H]([C@@H](C)CC)C(=O)N3CCC[C@H]3C(=O)N[C@@H](CC(=O)O)C(=O)N[C@@H](CC(N)=O)C(=O)N[C@@H](CC(=O)O)C(=O)N[C@@H](CCCCN)C(=O)N2)NC(=O)[C@H](C(C)C)NC(=O)[C@H](CC(C)C)NC(=O)[C@H](CC(N)=O)NC(=O)[C@@H]2CCCN2C(=O)[C@H](CCCNC(=N)N)NC1=O` [[2-Abu2,17]GpTx-1(1-34)] (H-D[Abu]LGFMRKCIPDNDKC[Abu]RPNLVCSRTHKWCKYVF-NH2; disulfide 9-23, 16-30): the results for the IC50 in experiment [1] (Nav1.7 Use IC50) and in experiment [2] were 21 nM and 10000 nM, respectively.
